From patent US9526785B2, “Pharmaceuticals for oral delivery” (Enteris BioPharma, Inc., priority 2013, dated 2016) come the findings set out here.

The nature of this data set: Tigecycline plasma PK after IV bolus in anesthetized rats. The format is in vivo. As to conditions: female, Sprague-Dawley, rat. The procedure:
Naïve, female Sprague-Dawley Rats (Taconic Farms, Germantown, N.Y.) housed in groups of three were maintained in a climate-controlled room on a 12:12 h light-dark cycle with food and water available ad libitum. Animals weighed approximately 250 g at the time of testing. Rats were fasted overnight (with water available), prior to dosing. Tigecycline stock was prepared fresh on the day of each study in water and diluted in the indicated formulations.
Intravenous (IV) doses were administered as a bolus injection into the left carotid […] at a dose volume of 1.6 mL/kg. Intraduodenal doses were administered as bolus injections into the duodenum at a dose volume of 1.2 mL/kg.
Female rats were maintained in groups of 3 per polycarbonate (or equivalent) shoebox cage with fresh wood chip bedding at 20-22° C. under a 12 hour on/off light:dark cycle. The rats were fasted overnight prior to surgery and anesthetized by intramuscular injection of 0.3 mL fresh ketamine (67 mg/mL)/xylazine (42 mg/mL) in 0.9% saline into the hind flank. After the rats went limp they were injected intraperitoneally (IP) with 0.1 mL ketamine/xylazine. The anesthetic state was maintained by IP injection of ketamine/xylazine on an as needed basis. Animal weights were determined post-anesthesia induction.
An indwelling catheter for blood sampling was inserted into the right carotid artery by exposing the trachea with Mayo scissors, clamping the bottom of the […] and tying off the top with surgical suture. The area between was nicked with small sharp scissors and Intramedic polyethylene tubing was inserted into the nicked area. The artery with the tubing was sealed with suture to prevent leakage. A 23-gauge Intramedic Luer Stub Adapter was inserted into the cannula and attached to a 3 way valve which was connected to a 3 cc syringe filled with 0.9% normal saline and a 1 cc syringe filled with 5 U/mL sodium heparin for blood sampling.
Blood samples were collected in tubes containing 20 μL 180 mM EDTA. The tubes were maintained on ice and then centrifuged at approximately 3000 rpm at 4° C. for 5 minutes. Plasma was harvested immediately after centrifugation of the samples and stored at −20° C. pending analysis.
Minocycline (VWR international) was used as an internal standard. Sample processing/clean-up of plasma samples was carried out offline by protein precipitation with acidified acetonitrile.
The HPLC system consisted of Shimadzu SIL-HTc HPLC system equipped with dual Shimadzu LC-10ADvp isopumps, a Shimadzu CTO-10ASvp column temperature controller and a Shimadzu SPD-10Avp variable wavelength detector. […] Mobile phase A consisted of 23 mM phosphate buffer pH 2.5 with 6 mM 1-octanesulfonic acid, while mobile phase B consisting of pure acetonitrile. […] The mobile phase flow rate was 1.2 mL/min. Detection was performed using the SPD-10Avp variable wavelength detector set at 350 nm, with a sensitivity of 0.001 aufs.
The samples were then centrifuged under refrigeration at 13 k rpm for 30 minutes. The supernatant was taken and the liquid was removed to dryness in a turbovap. The samples were then reconstituted in 55 μL 0.1M phosphate buffer, pH 3.8. Samples were maintained at 10° C. while on the autoinjector during sequence. The injection volume was 50 μL. The unknown concentration in rat plasma samples was determined by interpolation of the peak area ratios of analyte:internal standard versus the ratio of their nominal concentrations into the regression line obtained from calibration standards spiked in pooled rat plasma. No regression weighting was used for the calculations. […] The calibration curve covered the range of 0.05 μg/mL to 5.0 μg/mL.
Due to analytical issues observed in the analyses of earlier study samples, the analytical method was changed slightly for later samples. Mobile phase A was changed to 23 mM phosphate buffer pH 2.5 with 4 mM 1-octanesulfonic acid, while mobile phase B was changed to 90% acetonitrile, 10% water, with 2 mM 1-octanesulfonic acid. […]

Where [1] appears, read: IV bolus 0.64 mg/kg, PBS (RA851).

For orientation: AUC(0-t) means exposure summed from dosing to a finite time, without extrapolation to infinity. Read a low AUC(0-t) as less exposure. The Cmax is the peak of the concentration-time curve. The term Tmax denotes the time from dosing to the highest level. Turning to `CN(C)c1cc(NC(=O)CNC(C)(C)C)c(O)c2c1C[C@H]1C[C@H]3[C@H](N(C)C)C(O)=C(C(N)=O)C(=O)[C@@]3(O)C(O)=C1C2=O` [Tigecycline], under setting [1], the AUC(0-t) is 970 ng·h/mL, the Cmax amounted to 1790 ng/mL, the Tmax was 5 min and the concentration at 0 min was 0 ng/mL. For the same molecule, under setting [1], the concentration at 5 min came out at 1790 ng/mL, the concentration at 10 min was found to be 888 ng/mL, the concentration at 20 min worked out at 447 ng/mL and the concentration at 30 min came out at 376 ng/mL. Besides, under setting [1], the concentration at 60 min is 290 ng/mL and the concentration at 120 min is 216 ng/mL. The concentration at 240 min (IV bolus 0.64 mg/kg, PBS (RA851), 240 min) was found to be 116 ng/mL. Further, under “IV bolus 12 mg/kg, PBS (RA853)”, the AUC(0-t) was 13200 ng·h/mL, the highest concentration (Cmax) was 50700 ng/mL, the time of peak concentration (Tmax) is 5 min and the concentration at 0 min was determined as 0 ng/mL. Where the note is “IV bolus 12 mg/kg, PBS (RA853)”, this molecule registered a concentration at 5 min of 50700 ng/mL, a concentration at 10 min of 26200 ng/mL, a concentration at 20 min of 9310 ng/mL and a concentration at 30 min of 5760 ng/mL. For the setting “IV bolus 12 mg/kg, PBS (RA853)”, the concentration at 60 min came to 2610 ng/mL and the concentration at 120 min was found to be 1870 ng/mL. Under “RA869, IV, 0.6 mg/kg”, the exposure AUC(0-t) was 132 ng·h/mL, the Cmax turned out to be 369 ng/mL and the Tmax was 7.5 min.
